Read-outs that look alike come from different tables or passages of the source.

The assay concerns AsPC-1 cells. In words: phospho-ERK HTRF assay in AsPC-1 cells, 4 h treatment. In kind it is cell-based. On the technique in general: In TR-FRET formats the signal depends on donor and acceptor labels being close together.
Where [1] appears, read: Homo sapiens, ASPC1, AsPC-1, 4H, Table 1a class column, read-out: pERK IC50 activity range (*).
[2] abbreviates: Homo sapiens, ASPC1, AsPC-1, 4H, Table 1a, read-out: PERK IC50 (AsPC-1, 4H).
Setting [3] is: Homo sapiens, ASPC1, AsPC-1, 4h, Table 1b, read-out: PERK IC50 (AsPC-1, 4h).

As a reminder, the IC50 is the concentration needed to halve the response being measured. As to `[2H]C([2H])([2H])N(C(=O)c1nn2c(c1Cl)CN(c1nc(OC[C@@]34CCCN3C[C@H](F)C4)nc3c1CO[C@@H](c1c(F)c(N)cc(Cl)c1C(F)(F)F)C3)CCC2)C([2H])([2H])[2H]` [250b], under setting [1], the IC50 was 10 to 30 nM.

Consider `CN1CCN(c2nc(OC[C@@]34CCCN3C[C@H](F)C4)nc3c2COC(c2c(C(F)(F)F)ccc(N)c2F)C3)CCC1=O` (stereo partly drawn) [compound 201], for which the IC50 runs as follows: under setting [1], > 500 nM; under setting [2], > 10000 nM.

On to `CN(C)C(=O)c1nc2c(s1)CCCN(c1nc(OC[C@@]34CCCN3C[C@H](F)C4)nc3c1CO[C@H](c1c(C(F)(F)F)ccc(N)c1F)C3)C2` [compound 202], for which the half-maximal inhibitory concentration (IC50) under setting [1] is > 500 nM and the 50% inhibitory concentration (IC50) under setting [2] is > 10000 nM.

Take `Nc1ccc(C(F)(F)F)c(C2Cc3nc(OC[C@@]45CCCN4C[C@H](F)C5)nc(N4CCNCC(=O)C4)c3CO2)c1F` (stereo partly drawn) [compound 203]: the 50% inhibitory concentration (IC50) by setting is: under setting [1], > 500 nM; under setting [2], > 10000 nM.

Turning to `Nc1ccc(C(F)(F)F)c([C@@H]2Cc3nc(OC[C@@]45CCCN4C[C@H](F)C5)nc(N4CCCS(=O)(=O)CC4)c3CO2)c1F` [compound 204], the IC50 reads like this: under setting [1], > 500 nM; under setting [2], > 10000 nM.

In the case of `Nc1ccc(C(F)(F)F)c([C@@H]2Cc3nc(OC[C@@]45CCCN4C[C@H](F)C5)nc(N4CCNC(=O)CC4)c3CO2)c1F` [compound 205], the IC50 was > 500 nM under setting [1] and > 10000 nM under setting [2].

Regarding `Nc1ccc(C(F)(F)F)c(C2Cc3nc(OC[C@@]45CCCN4C[C@H](F)C5)nc(N4CCCC(=O)CC4)c3CO2)c1F` (stereo partly drawn) [compound 206], the IC50 was > 500 nM under setting [1] and > 10000 nM under setting [2].

As to `Nc1ccc(C(F)(F)F)c(C2Cc3nc(OC[C@@]45CCCN4C[C@H](F)C5)nc(N4CCNC5CS(=O)(=O)C[C@H]54)c3CO2)c1F` (stereo partly drawn) [compound 207], the IC50 is, setting by setting: under setting [1], > 500 nM; under setting [2], > 10000 nM.

Turning to `CN(C)C(=O)c1nc2c(o1)CCCN(c1nc(OC[C@@]34CCCN3C[C@H](F)C4)nc3c1COC(c1c(C(F)(F)F)ccc(N)c1F)C3)C2` (stereo partly drawn) [compound 208], the IC50 is > 500 nM under setting [1] and 1440 nM under setting [2].

As for `CN(C)C(=O)c1nc2c(s1)CN(c1nc(OC[C@@]34CCCN3C[C@H](F)C4)nc3c1CO[C@H](c1c(C(F)(F)F)ccc(N)c1F)C3)CCC2` [compound 209], the IC50 runs as follows: under setting [1], 101 to 500 nM; under setting [2], 479 nM.

On to `Nc1ccc(C(F)(F)F)c(C2Cc3nc(OC[C@@]45CCCN4C[C@H](F)C5)nc(N4CCNCC(=O)C4)c3CO2)c1F` (stereo partly drawn) [compound 210], for which the IC50 reads like this: (AsPC-1, 4H, Table 1a class column, read-out: pERK IC50 activity range (*)) > 500 nM; (AsPC-1, 4H, Table 1a, read-out: PERK IC50 (AsPC-1, 4H)) > 10000 nM.

In the case of `CN(C)C(=O)c1nn2c(c1Cl)CN(c1nc(OC[C@@]34CCCN3C[C@H](F)C4)nc3c1COC(c1nc(N)ccc1C(F)(F)F)C3)CCC2` (stereo partly drawn) [compound 217, 5-(7-(6-amino-3-(trifluoromethyl)pyridin-2-yl)-2-(((2R,7aS)-2-fluorotetrahydro-1H-pyrrolizin-7a(5H)-yl)methoxy)-7,8-dihydro-5H-pyrano[4,3-d]pyrimidin-4-yl)-3-chloro-N,N-dimethyl-5,6,7,8-tetrahydro-4H-pyrazolo[1,5-a][1,4]diazepine-2-carboxamide], the IC50 was 101 to 500 nM under setting [1] and 312 nM under setting [2].

For `CN(C)C(=O)c1nn2c(c1Cl)CN(c1nc(OC[C@@]34CCCN3C[C@H](F)C4)nc3c1COC(c1c(C(F)(F)F)ccc(Br)c1F)C3)CC1(COC1)C2` (stereo partly drawn) [compound 218], the half-inhibitory concentration (IC50) under setting [1] is > 500 nM and the IC50 under setting [2] is > 10000 nM.

Turning to `CN(C)C(=O)c1nn2c(c1Cl)CN(c1nc(OC[C@@]34CCCN3C[C@H](F)C4)nc3c1CO[C@H](c1c(C(F)(F)F)ccc(I)c1F)C3)CCC2` [compound 219], the IC50 runs as follows: under setting [1], > 500 nM; under setting [2], 896 nM.

`CN(C)C(=O)c1nn2c(c1Cl)CN(c1nc(OC[C@@]34CCCN3C[C@H](F)C4)nc3c1CO[C@H](c1c(C(F)(F)F)ccc(Br)c1F)C3)CCC2` [compound 220]: the half-maximal inhibitory concentration (IC50) runs as follows: under setting [1], > 500 nM; under setting [2], 1040 nM.

Turning to `CN(C)C(=N)c1nn2c(c1Cl)CN(c1nc(OC[C@@]34CCCN3C[C@H](F)C4)nc3c1CO[C@H](c1c(C(F)(F)F)ccc(N)c1F)C3)CCC2` [compound 221], the 50% inhibitory concentration (IC50) is, setting by setting: under setting [1], > 500 nM; under setting [2], > 10000 nM.

`CN(C)C(=O)c1nn2c(c1Cl)CN(c1nc(OC[C@@]34CCCN3C[C@H](F)C4)nc3c1COC(c1c(C(F)(F)F)ccc(N)c1F)C3)CC1(COC1)C2` (stereo partly drawn) [compound 222]: the IC50 is, setting by setting: under setting [1], > 500 nM; under setting [2], > 10000 nM.

As to `CN(C)C(=S)c1nn2c(c1Cl)CN(c1nc(OC[C@@]34CCCN3C[C@H](F)C4)nc3c1CO[C@H](c1c(C(F)(F)F)ccc(N)c1F)C3)CCC2` [compound 223], the IC50 is 101 to 500 nM under setting [1] and 147 nM under setting [2].

`CN(C)C(=O)c1nn2c(c1Br)CN(c1nc(OC[C@@]34CCCN3C[C@H](F)C4)nc3c1CO[C@H](c1c(C(F)(F)F)ccc(N)c1F)C3)CCC2` [compound 224]: the IC50 reads like this: under setting [1], 10 to 30 nM; under setting [2], 22 nM.

For the compound `COCCN(C)C(=O)c1nn2c(c1Cl)CN(c1nc(OC[C@@]34CCCN3C[C@H](F)C4)nc3c1COC(c1c(C(F)(F)F)ccc(N)c1F)C3)CCC2` (stereo partly drawn) [compound 225], the IC50 is 31 to 100 nM under setting [1] and 82 nM under setting [2].

As to `CN(C)C(=O)n1nc2c(c1Cl)CN(c1nc(OC[C@@]34CCCN3C[C@H](F)C4)nc3c1COC(c1c(C(F)(F)F)ccc(N)c1F)C3)CCC2` (stereo partly drawn) [compound 226], the IC50 runs as follows: under setting [1], > 500 nM; under setting [2], 943 nM.

As for `Nc1ccc(C(F)(F)F)c(C2Cc3nc(OC[C@@]45CCCN4C[C@H](F)C5)nc(N4CCCn5nc(C(=O)N6CCOCC6)c(Cl)c5C4)c3CO2)c1F` (stereo partly drawn) [compound 227], the IC50 is, setting by setting: under setting [1], 31 to 100 nM; under setting [2], 97 nM.

Consider `CN(C)C(=O)n1cc2c(n1)CCCN(c1nc(OC[C@@]34CCCN3C[C@H](F)C4)nc3c1COC(c1c(C(F)(F)F)ccc(N)c1F)C3)C2` (stereo partly drawn) [compound 228], for which the IC50 under setting [1] is > 500 nM and the half-maximal inhibitory concentration (IC50) under setting [2] came out at 3070 nM.

With `Cn1cc2c(n1)CCCN(c1nc(OC[C@@]34CCCN3C[C@H](F)C4)nc3c1COC(c1c(C(F)(F)F)ccc(N)c1F)C3)C2` (stereo partly drawn) [compound 229], the IC50 was > 500 nM under setting [1] and > 10000 nM under setting [2].

In the case of `CN(C)C(=O)c1nn2c(c1Cl)CN(c1nc(OC[C@@]34CCCN3C[C@H](F)C4)nc3c1COC(c1cc(N)ccc1C(F)(F)F)C3)CCC2` (stereo partly drawn) [compound 230, 5-(7-(5-amino-2-(trifluoromethyl)phenyl)-2-(((2R,7aS)-2-fluorotetrahydro-1H-pyrrolizin-7a(5H)-yl)methoxy)-7,8-dihydro-5H-pyrano[4,3-d]pyrimidin-4-yl)-3-chloro-N,N-dimethyl-5,6,7,8-tetrahydro-4H-pyrazolo[1,5-a][1,4]diazepine-2-carboxamide], the concentration for half-maximal inhibition (IC50) is 31 to 100 nM under setting [1] and 37 nM under setting [2].

On to `CN(C)C(=O)c1nn2c(c1Cl)CN(c1nc(OCC34CCCN3CC(=C(F)F)C4)nc3c1COC(c1c(C(F)(F)F)ccc(N)c1F)C3)CCC2` (stereo not drawn) [compound 231], for which the IC50 reads like this: under setting [1], 31 to 100 nM; under setting [2], 56 nM.

On to `CN(C(=O)c1nn2c(c1Cl)CN(c1nc(OC[C@@]34CCCN3C[C@H](F)C4)nc3c1COC(c1c(C(F)(F)F)ccc(N)c1F)C3)CCC2)C1CC1` (stereo partly drawn) [compound 232, 5-(7-(3-amino-2-fluoro-6-(trifluoromethyl)phenyl)-2-(((2R,7aS)-2-fluorotetrahydro-1H-pyrrolizin-7a(5H)-yl)methoxy)-7,8-dihydro-5H-pyrano[4,3-d]pyrimidin-4-yl)-3-chloro-N-cyclopropyl-N-methyl-5,6,7,8-tetrahydro-4H-pyrazolo[1,5-a][1,4]diazepine-2-carboxamide], for which the 50% inhibitory concentration (IC50) reads like this: under setting [1], 101 to 500 nM; under setting [2], 247 nM; (Homo sapiens, ASPC1, AsPC-1, 4H, individual (R) diastereomer of Ex. 232, read-out: PERK IC50 (AsPC-1, 4H) nM, individual diastereomer (R)) > 1000 nM; (Homo sapiens, ASPC1, AsPC-1, 4H, individual (S) diastereomer of Ex. 232, read-out: PERK IC50 (AsPC-1, 4H) nM, individual diastereomer (S)) 166 nM.

Consider `CN(C)C(=O)c1nn2c(c1Cl)CN(c1nc(OC[C@@]34CCCN3C/C(=C\F)C4)nc3c1COC(c1c(C(F)(F)F)ccc(N)c1F)C3)CCC2` (stereo partly drawn) [compound 233, 5-(7-(3-amino-2-fluoro-6-(trifluoromethyl)phenyl)-2-(((S,Z)-2-(fluoromethylene)tetrahydro-1H-pyrrolizin-7a(5H)-yl)methoxy)-7,8-dihydro-5H-pyrano[4,3-d]pyrimidin-4-yl)-3-chloro-N,N-dimethyl-5,6,7,8-tetrahydro-4H-pyrazolo[1,5-a][1,4]diazepine-2-carboxamide], for which the IC50 is 10 to 30 nM under setting [1] and 30 nM under setting [2].

As to `CN(C)C(=O)c1nn2c(c1Cl)CN(c1nc(OC[C@@]34CCCN3C[C@H](F)C4)nc3c1CO[C@H](c1cc(N)cc(Cl)c1C(F)(F)F)C3)CCC2` [compound 234, 5-((S)-7-(5-amino-3-chloro-2-(trifluoromethyl)phenyl)-2-(((2R,7aS)-2-fluorotetrahydro-1H-pyrrolizin-7a(5H)-yl)methoxy)-7,8-dihydro-5H-pyrano[4,3-d]pyrimidin-4-yl)-3-chloro-N,N-dimethyl-5,6,7,8-tetrahydro-4H-pyrazolo[1,5-a][1,4]diazepine-2-carboxamide], under setting [3], the half-maximal inhibitory concentration (IC50) is < 10 nM.

As to `CN(C)C(=O)c1nn2c(c1Cl)CN(c1nc(OC[C@@]34CCCN3C/C(=C\F)C4)nc3c1CO[C@H](c1cc(N)cc(Cl)c1C(F)(F)F)C3)CCC2` [compound 235, 5-((S)-7-(5-amino-3-chloro-2-(trifluoromethyl)phenyl)-2-(((S,Z)-2-(fluoromethylene)tetrahydro-1H-pyrrolizin-7a(5H)-yl)methoxy)-7,8-dihydro-5H-pyrano[4,3-d]pyrimidin-4-yl)-3-chloro-N,N-dimethyl-5,6,7,8-tetrahydro-4H-pyrazolo[1,5-a][1,4]diazepine-2-carboxamide], the IC50 under setting [3] is < 10 nM.

For `CN(C)C(=O)c1nn2c(c1Cl)CN(c1nc(OC[C@@]34CCCN3C[C@H](F)C4)nc3c1COC(c1cc(N)cc(Cl)c1C(F)(F)F)C3)CCC2` (stereo partly drawn) [compound 236], the IC50 under setting [3] was < 10 nM.

These data come from patent US20260224589A1 (priority 2023, published 2026).
